Laboratory results taken from US11993603B2, “Preparation for 6-amino-1H-pyrazolo[3,4-d]pyrimidine-based JAK kinase inhibitor and application thereof” (INSTITUTE OF MATERIA MEDICA, CHINESE ACADEMY OF MEDICAL …, priority 2018, dated 2024).
pIC50: −log10 of the molar value. Where two headings read alike, the source gives them in different places.

Legend:
Assay type in all cases: biochemical
JAK-2 = JAK-2 (Homo sapiens (Human), UniProt O60674); experiment: Inhibition test on JAK-2 kinase (FRET peptide substrate assay); conditions: kinase 1 nM, 1 h at room temperature
Chain of JAK-2 (O60674 whole entry): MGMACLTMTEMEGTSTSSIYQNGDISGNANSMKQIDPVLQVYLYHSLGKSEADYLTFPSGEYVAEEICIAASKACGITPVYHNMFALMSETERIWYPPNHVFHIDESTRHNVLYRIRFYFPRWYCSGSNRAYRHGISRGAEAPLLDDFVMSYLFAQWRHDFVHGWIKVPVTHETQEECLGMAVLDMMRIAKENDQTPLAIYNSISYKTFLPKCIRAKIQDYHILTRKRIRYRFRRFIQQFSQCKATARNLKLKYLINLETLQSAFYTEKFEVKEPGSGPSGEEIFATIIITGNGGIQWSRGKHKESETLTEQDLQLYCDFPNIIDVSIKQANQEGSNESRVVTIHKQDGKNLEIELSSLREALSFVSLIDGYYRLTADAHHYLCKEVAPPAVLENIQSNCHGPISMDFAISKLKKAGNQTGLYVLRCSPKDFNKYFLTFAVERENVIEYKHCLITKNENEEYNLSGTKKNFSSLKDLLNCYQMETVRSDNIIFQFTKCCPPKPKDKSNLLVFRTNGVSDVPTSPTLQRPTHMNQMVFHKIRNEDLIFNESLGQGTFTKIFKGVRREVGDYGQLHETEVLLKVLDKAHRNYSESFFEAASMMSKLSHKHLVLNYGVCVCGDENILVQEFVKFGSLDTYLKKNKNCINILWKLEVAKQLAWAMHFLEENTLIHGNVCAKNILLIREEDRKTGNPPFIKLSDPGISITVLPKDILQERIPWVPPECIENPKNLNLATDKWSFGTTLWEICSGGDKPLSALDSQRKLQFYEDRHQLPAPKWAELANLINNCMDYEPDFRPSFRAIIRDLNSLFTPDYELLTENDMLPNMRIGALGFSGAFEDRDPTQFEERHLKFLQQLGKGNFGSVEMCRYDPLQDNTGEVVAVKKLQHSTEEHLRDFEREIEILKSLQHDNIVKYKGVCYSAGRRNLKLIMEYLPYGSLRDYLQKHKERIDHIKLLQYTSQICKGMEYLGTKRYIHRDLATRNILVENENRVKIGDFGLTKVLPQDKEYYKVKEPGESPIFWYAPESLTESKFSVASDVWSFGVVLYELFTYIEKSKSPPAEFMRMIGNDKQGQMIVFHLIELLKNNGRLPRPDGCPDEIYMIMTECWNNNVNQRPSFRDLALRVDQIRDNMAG
From the text: (§1) Experiment Example (Inhibition Tests on JAK-1, JAK-2 and JAK-3 Kinases)
(§2) To evaluate the inhibitory activity of the compound on JAK-1, JAK-2 and JAK-3 kinases
(§3) A proteolytic enzyme is coupled to exert different proteolysis on a specific phosphorylated and nonphosphorylated peptide substrate based on fluorescence resonance energy transfer (FRET). Both ends of the peptide substrate were respectively labeled FRET energy donor coumarin and energy receptor fluorescein, and at this time, the donor was stimulated to produce energy transfer when the donor is close to a receptor.
(§4) In Kinase Reaction, JAK-1, JAK-2 or JAK-3 may transfer γ-phosphoric acid in ATP onto a single tyrosine residue of a peptide substrate; and there were JAK-1, JAK-2 or JAK-3 inhibitors in the system, γ-phosphoric acid groups on ATP would be not transferred onto the peptide substrate, thus resulting in the failure of phosphorylation. An evaluation experiment was designed based on the principle, a peptide substrate was designed with kinase phosphorylation sites, namely, protein restriction enzyme cutting sites; and both ends thereof were respectively connected with 2 fluorophores as a donor and a receptor respectively; if the kinase kept activity in the system, a γ-phosphonic acid group was transferred onto restriction enzyme cutting sites of the substrate, so that the γ-phosphonic acid group would not be cut and separated into two segments by a protease; moreover, under the stimulation of a laser having a specific wavelength, energy from a segment of fluorescence would be transferred onto another end of fluorophores, thus emitting energy. Otherwise, after kinase activity was inhibited, phosphoric acid groups would be not transferred, and restriction enzyme cutting sites in the substrate would be cut by a […] in the system to separate the substrate into two segments, thereby no energy transfer of fluorescence occurred. Based on this, the activity of the kinase was evaluated.
(§5) In this experiment, a 10 μl kinase reaction system was selected, firstly, 2.5 μl kinase (concentration: 1 nM), 2.5 μl peptide substrate (concentration: 2 μM), 2.5 μl ATP (concentration: […]) and 2.5 μl compound were added to each system for reaction for 1 h at room temperature, and then a 5 μl test solution was added for reaction for 1 h at room temperature, then a 5 μl stop buffer was added. A microplate reader (Synergy H1, BioTek, USA) was used to measure fluorescence intensity (emission intensity of coumarin at 445 nm and emission intensity of fluorescein at 520 nm were detected under the stimulation of 400 nm). The inhibitory activity of each compound was calculated, where it was believed that fluorescence intensity of a well not containing the kinase was 100% inhibited.

JAK-3 = JAK-3 (Homo sapiens (Human), UniProt P52333); experiment: Inhibition test on JAK-3 kinase (FRET peptide substrate assay); conditions: for IC50: kinase 1 nM, 1 h at room temperature, read-out: IC50 (nM) JAK-3
Chain of JAK-3 (P52333 whole entry): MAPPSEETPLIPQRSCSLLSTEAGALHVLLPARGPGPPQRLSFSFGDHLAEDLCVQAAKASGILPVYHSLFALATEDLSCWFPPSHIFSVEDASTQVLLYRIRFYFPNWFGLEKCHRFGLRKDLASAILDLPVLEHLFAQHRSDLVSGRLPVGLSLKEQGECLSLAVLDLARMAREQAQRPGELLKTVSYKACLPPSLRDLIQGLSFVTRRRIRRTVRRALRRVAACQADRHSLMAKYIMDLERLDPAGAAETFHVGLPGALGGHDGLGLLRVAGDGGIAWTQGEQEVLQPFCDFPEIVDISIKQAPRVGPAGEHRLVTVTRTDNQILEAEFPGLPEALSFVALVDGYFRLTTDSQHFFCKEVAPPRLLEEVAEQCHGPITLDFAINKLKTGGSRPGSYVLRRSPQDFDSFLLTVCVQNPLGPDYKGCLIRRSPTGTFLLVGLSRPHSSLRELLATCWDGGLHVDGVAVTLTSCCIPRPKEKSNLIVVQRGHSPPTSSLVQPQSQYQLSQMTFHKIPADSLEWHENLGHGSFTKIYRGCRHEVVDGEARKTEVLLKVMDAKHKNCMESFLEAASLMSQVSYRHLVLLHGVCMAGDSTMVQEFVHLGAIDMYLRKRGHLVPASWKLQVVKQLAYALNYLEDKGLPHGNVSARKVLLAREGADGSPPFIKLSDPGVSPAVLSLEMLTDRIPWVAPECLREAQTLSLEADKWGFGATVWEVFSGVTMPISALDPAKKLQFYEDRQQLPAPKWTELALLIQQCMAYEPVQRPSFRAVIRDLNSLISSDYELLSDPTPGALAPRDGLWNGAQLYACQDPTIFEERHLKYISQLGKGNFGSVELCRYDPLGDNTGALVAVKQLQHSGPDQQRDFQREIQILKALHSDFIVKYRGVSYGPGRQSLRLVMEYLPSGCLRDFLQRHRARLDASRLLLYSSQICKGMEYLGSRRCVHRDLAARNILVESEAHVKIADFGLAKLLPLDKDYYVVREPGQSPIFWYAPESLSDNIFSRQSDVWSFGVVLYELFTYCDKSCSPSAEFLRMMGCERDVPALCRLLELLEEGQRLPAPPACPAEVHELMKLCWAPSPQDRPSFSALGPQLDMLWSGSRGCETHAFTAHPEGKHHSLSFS
From the text: as §1, §2, §3, §4, §5

JAK-1 = JAK-1 (Homo sapiens (Human), UniProt P23458); experiment: Inhibition test on JAK-1 kinase (FRET peptide substrate assay); conditions: kinase 1 nM, 1 h at room temperature
Chain of JAK-1 (P23458 whole entry): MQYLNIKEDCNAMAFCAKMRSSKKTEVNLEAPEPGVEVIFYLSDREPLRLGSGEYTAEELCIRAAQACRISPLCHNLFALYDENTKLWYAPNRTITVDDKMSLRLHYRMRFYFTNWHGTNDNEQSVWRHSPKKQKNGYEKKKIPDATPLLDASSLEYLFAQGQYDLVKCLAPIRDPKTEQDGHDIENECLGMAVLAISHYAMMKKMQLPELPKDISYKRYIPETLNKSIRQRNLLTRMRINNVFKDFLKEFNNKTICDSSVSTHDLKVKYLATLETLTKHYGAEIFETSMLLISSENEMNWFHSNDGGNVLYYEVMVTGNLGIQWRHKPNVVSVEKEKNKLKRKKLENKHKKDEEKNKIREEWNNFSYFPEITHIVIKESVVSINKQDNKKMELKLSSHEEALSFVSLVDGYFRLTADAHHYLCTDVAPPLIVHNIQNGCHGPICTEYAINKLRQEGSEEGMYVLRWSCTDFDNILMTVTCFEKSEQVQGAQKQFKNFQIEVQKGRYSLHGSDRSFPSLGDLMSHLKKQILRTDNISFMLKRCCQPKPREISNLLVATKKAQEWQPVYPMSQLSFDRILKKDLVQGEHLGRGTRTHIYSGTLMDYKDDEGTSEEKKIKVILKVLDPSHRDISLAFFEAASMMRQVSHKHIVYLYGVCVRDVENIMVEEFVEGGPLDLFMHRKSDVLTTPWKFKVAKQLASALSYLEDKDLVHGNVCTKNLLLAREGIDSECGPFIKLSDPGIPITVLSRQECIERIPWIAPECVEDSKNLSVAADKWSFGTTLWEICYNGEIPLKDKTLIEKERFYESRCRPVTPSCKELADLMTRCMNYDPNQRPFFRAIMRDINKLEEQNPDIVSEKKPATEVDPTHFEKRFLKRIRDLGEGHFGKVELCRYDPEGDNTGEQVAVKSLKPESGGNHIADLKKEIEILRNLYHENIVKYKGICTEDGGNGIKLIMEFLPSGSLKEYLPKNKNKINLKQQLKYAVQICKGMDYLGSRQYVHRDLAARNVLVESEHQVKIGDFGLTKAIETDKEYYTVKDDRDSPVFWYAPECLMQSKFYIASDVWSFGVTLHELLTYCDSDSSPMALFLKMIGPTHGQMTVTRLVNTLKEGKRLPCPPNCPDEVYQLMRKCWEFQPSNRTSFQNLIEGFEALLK
From the text: as §1, §2, §3, §4, §5

| Compound | IC50 (JAK-2) | IC50 (JAK-3) | IC50 (JAK-1) | pIC50 (JAK-3; differs from Table 5, read-out: JAK-3 inhibitory activity IC50) |
| --- | --- | --- | --- | --- |
| C=CC(=O)Nc1ccc(Cn2ncc3cnc(Nc4ccc(F)cc4)nc32)cc1 [Example 19, N-(4-((6-((4-fluorophenyl)amino)-1H-pyrazolo[3,4-d]pyrimidin-1-yl)methyl)phenyl)acrylamide] | 1800 nM | 3.7 nM | 1580 nM |  |
| C/C=C/C(=O)Nc1ccc(Cn2ncc3cnc(Nc4ccc(N5CCOCC5)cc4)nc32)cc1 [Example 27, N-(4-((6-((4-morpholinylphenyl)amino)-1H-pyrazolo[3,4-d]pyrimidin-1-yl)methyl)phenyl)but-2-enamide] | 893 nM | 2 nM | 960 nM |  |
| C/C=C/C(=O)Nc1ccc(Cn2ncc3cnc(Nc4ccccc4)nc32)cc1 [Example 25, N-(4-((6-aniline-1H-pyrazolo[3,4-d]pyrimidin-1-yl)methyl)phenyl)but-2-enamide] | 1040 nM | 1.2 nM | 2400 nM |  |
| C/C=C/C(=O)Nc1ccc(Cn2ncc3cnc(Nc4ccc(N5CCN(C)CC5)cc4)nc32)cc1 [Example 28, N-(4-((6-((4-(4-methylpiperazin-1-yl)phenyl)amino)-1H-pyrazolo[3,4-d]pyrimidin-1-yl)methyl)phenyl)but-2-enamide] | 790 nM | 2.3 nM | 4090 nM |  |
| C/C=C/C(=O)Nc1cccc(Cn2ncc3cnc(Nc4ccccc4)nc32)c1 [Example 11, N-(3-((6-aniline-1H-pyrazolo[3,4-d]pyrimidin-1-yl)methyl)phenyl)but-2-enamide] | 690 nM | 1.4 nM | 830 nM |  |
| C=CC(=O)Nc1ccc(Cn2ncc3cnc(Nc4cnn(C)c4)nc32)cc1 [Example 16, N-(4-((6-((1-methyl-1H-pyrazol-4-yl)amino)-1H-pyrazolo[3,4-d]pyrimidine-1-yl)methyl)phenyl)acrylamide] | 770 nM | 1.4 nM | 1410 nM |  |
| C=CC(=O)Nc1cccc(Cn2ncc3cnc(Nc4cnn(C)c4)nc32)c1 [Example 2] | 941 nM | 2.2 nM | 1390 nM |  |
| C=CC(=O)Nc1cccc(Cn2ncc3cnc(Nc4ccc(N5CCN(C)CC5)cc4)nc32)c1 [Example 7, N-(3-((6-((4-(4-methylpiperazin-1-yl)phenyl)amino)-1H-pyrazolo[3,4-d]pyrimidin-1-yl)methyl)phenyl)acrylamide] | 1080 nM | 6.1 nM | 942 nM |  |
| C/C=C/C(=O)Nc1ccc(Cn2ncc3cnc(Nc4ccc(F)cc4)nc32)cc1 [Example 26, N-(4-((6-((4-fluorophenyl)amino)-1H-pyrazolo[3,4-d]pyrimidine-1-yl)methyl)phenyl)but-2-enamide] | 804 nM | 0.3 nM | 880 nM |  |
| C=CC(=O)Nc1ccc(Cn2ncc3cnc(Nc4cnn(CCO)c4)nc32)cc1 [Example 17, N-(4-((6-((1-(2-hydroxyethyl)-1H-pyrazol-4-yl)amino)-1H-pyrazolo[3,4-d]pyrimidin-1-yl)methyl)phenyl)acrylamide] | 846 nM | 2 nM | 1420 nM |  |
| C=CC(=O)Nc1ccc(Cn2ncc3cnc(Nc4ccc(N5CCN(C)CC5)cc4)nc32)cc1 [Example 21, N-(4-((6-((4-(4-methylpiperazin-1-yl)phenyl)amino)-1H-pyrazolo[3,4-d]pyrimidin-1-yl)methyl)phenyl)acrylamide] | 1800 nM | 0.2 nM | 2850 nM |  |
| C/C=C/C(=O)Nc1ccc(Cn2ncc3cnc(Nc4cnn(C)c4)nc32)cc1 [Example 23, N-(4-((6-((1-methyl-1H-pyrazol-4-yl)amino)-1H-pyrazolo[3,4-d]pyrimidin-1-yl)methyl)phenyl)but-2-enamide] | 697 nM | 0.1 nM | 940 nM |  |
| C/C=C/C(=O)Nc1ccc(Cn2ncc3cnc(Nc4cnn(CCOC)c4)nc32)cc1 [Example 22, N-(4-((6-((1-(2-methoxy-ethyl)-1H-pyrazol-4-yl)amino)-1H-pyrazolo[3,4-d]pyrimidine-1-yl)methyl)phenyl)but-2-enamide] | 1250 nM | 2 nM | 918 nM |  |
| C/C=C/C(=O)Nc1cccc(Cn2ncc3cnc(Nc4cnn(C)c4)nc32)c1 [Example 9, N-(3-((6-((1-methyl-1H-pyrazol-4-yl)amino)-1H-pyrazolo[3,4-d]pyrimidin-1-yl)methyl)phenyl)but-2-enamide] | 860 nM | 2.1 nM | 618 nM |  |
| C/C=C/C(=O)Nc1cccc(Cn2ncc3cnc(Nc4ccc(N5CCN(C)CC5)cc4)nc32)c1 [Example 14, N-(3-((6-((4-(4-methylpiperazin-1-yl)phenyl)amino)-1H-pyrazolo[3,4-d]pyrimidin-1-yl)methyl)phenyl)but-2-enamide] | 1310 nM | 0.9 nM | 274 nM |  |
| C/C=C/C(=O)Nc1cccc(Cn2ncc3cnc(Nc4ccc(N5CCOCC5)cc4)nc32)c1 [Example 13, N-(3-((6-((4-morpholinylphenyl)amino)-1H-pyrazolo[3,4-d]pyrimidin-1-yl)methyl)phenyl)but-2-enamide] | 710 nM | 0.4 nM | 890 nM |  |
| C/C=C/C(=O)Nc1cccc(Cn2ncc3cnc(Nc4cnn(CCOC)c4)nc32)c1 [Example 8, N-(3-((6-((1-(2-methoxy-ethyl)-1H-pyrazol-4-yl)amino)-1H-pyrazolo[3,4-d]pyrimidine-1-yl)methyl)phenyl)but-2-enamide] | 610 nM | 3 nM | 701 nM |  |
| C=CC(=O)Nc1cccc(Cn2ncc3cnc(Nc4cnn(CCO)c4)nc32)c1 [Example 3, N-(3-((6-((1-(2-hydroxyethyl)-1H-pyrazol-4-yl)amino)-1H-pyrazolo[3,4-d]pyrimidin-1-yl)methyl)phenyl)acrylamide] | 4220 nM | 0.13 nM | 829 nM |  |
| C/C=C/C(=O)Nc1cccc(Cn2ncc3cnc(Nc4cnn(CCO)c4)nc32)c1 [Example 10, N-(3-((6-((1-(2-hydroxyethyl)-1H-pyrazol-4-yl)amino)-1H-pyrazolo[3,4-d]pyrimidin-1-yl)methyl)phenyl)but-2-enamide] | 960 nM | 0.7 nM | 940 nM |  |
| C/C=C/C(=O)Nc1ccc(Cn2ncc3cnc(Nc4cnn(CCO)c4)nc32)cc1 [Example 24, N-(4-((6-((1-(2-hydroxyethyl)-1H-pyrazol-4-yl)amino)-1H-pyrazolo[3,4-d]pyrimidin-1-yl)methyl)phenyl)but-2-enamide] | 948 nM | 0.2 nM | 1120 nM |  |
| C=CC(=O)Nc1ccc(Cn2ncc3cnc(Nc4ccc(N5CCOCC5)cc4)nc32)cc1 [Example 20, N-(4-((6-((4-morpholinylphenyl)amino)-1H-pyrazolo[3,4-d]pyrimidin-1-yl)methyl)phenyl)acrylamide] | 892 nM | 1.7 nM | 934 nM |  |
| C/C=C/C(=O)Nc1cccc(Cn2ncc3cnc(Nc4ccc(F)cc4)nc32)c1 [Example 12, N-(3-((6-((4-fluorophenyl)amino)-1H-pyrazolo[3,4-d]pyrimidin-1-yl)methyl)phenyl)but-2-enamide] | 2310 nM | 0.2 nM | 1030 nM |  |
| C=CC(=O)Nc1cccc(Cn2ncc3cnc(Nc4cnn(CCOC)c4)nc32)c1 [Example 1, N-(3-((6-((1-(2-methoxyethyl)-1H-pyrazol-4-yl)amino)-1H-pyrazolo[3,4-d]pyrimidine-1-yl)methyl)phenyl)acrylamide] | 747 nM | 1.4 nM |  | 10.07 |
| C=CC(=O)Nc1ccc(Cn2ncc3cnc(Nc4cnn(CCOC)c4)nc32)cc1 [Example 15, N-(4-((6-((1-(2-methoxyethyl)-1H-pyrazol-4-yl)amino)-1H-pyrazolo[3,4-d]pyrimidine-1-yl)methyl)phenyl)acrylamide] | 602 nM | 0.5 nM | 1540 nM |  |
| C=CC(=O)Nc1ccc(Cn2ncc3cnc(Nc4ccccc4)nc32)cc1 [Example 18, N-(4-((6-aniline-1H-pyrazolo[3,4-d]pyrimidin-1-yl)methyl)phenyl)acrylamide] | 1280 nM | 2.8 nM | 1990 nM |  |
| C=CC(=O)Nc1cccc(Cn2ncc3cnc(Nc4ccc(F)cc4)nc32)c1 [Example 5, N-(3-((6-((4-fluorophenyl)amino)-1H-pyrazolo[3,4-d]pyrimidin-1-yl)methyl)phenyl)acrylamide] | 1800 nM | 3.7 nM | 1580 nM |  |
